In PubChem BioAssay (NCI):
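Interpolation was linear, between the two tested concentrations surrounding the appropriate level; five concentrations were tested over 48 hours in 96-well plates. TGI marks complete inhibition of growth.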

Experiments:
Experiment in all cases: NCI tumour cell line growth inhibition, 48 h
M19-MEL melanoma = test system: M19-MEL melanoma
P388 leukemia = test system: P388 leukemia
HL-60(TB) leukemia = test system: HL-60(TB) leukemia
NCI/ADR-RES ovarian = test system: NCI/ADR-RES ovarian
P388/ADR leukemia = test system: P388/ADR leukemia
UACC-257 melanoma = test system: UACC-257 melanoma
UO-31 renal = test system: UO-31 renal
SN12K1 renal = test system: SN12K1 renal
SK-MEL-5 melanoma = test system: SK-MEL-5 melanoma
DMS 273 small cell lung = test system: DMS 273 small cell lung
IGROV1 ovarian = test system: IGROV1 ovarian
SN12C renal = test system: SN12C renal
SNB-78 CNS = test system: SNB-78 CNS
SF-539 CNS = test system: SF-539 CNS
U251 CNS = test system: U251 CNS
DLD-1 colon = test system: DLD-1 colon
XF 498 CNS = test system: XF 498 CNS
SW-620 colon = test system: SW-620 colon
NCI-H460 lung = test system: NCI-H460 lung
MALME-3M melanoma = test system: MALME-3M melanoma
COLO 205 colon = test system: COLO 205 colon
OVCAR-4 ovarian = test system: OVCAR-4 ovarian
SK-MEL-2 melanoma = test system: SK-MEL-2 melanoma
HT29 colon = test system: HT29 colon
CCRF-CEM leukemia = test system: CCRF-CEM leukemia
K-562 leukemia = test system: K-562 leukemia
OVCAR-5 ovarian = test system: OVCAR-5 ovarian
SK-OV-3 ovarian = test system: SK-OV-3 ovarian
DMS 114 small cell lung = test system: DMS 114 small cell lung
SNB-75 CNS = test system: SNB-75 CNS
HOP-62 NSCLC = test system: HOP-62 NSCLC
HCC-2998 colon = test system: HCC-2998 colon
MCF7 breast = test system: MCF7 breast
RXF 393 renal = test system: RXF 393 renal
KM20L2 colon = test system: KM20L2 colon
MOLT-4 leukemia = test system: MOLT-4 leukemia
UACC-62 melanoma = test system: UACC-62 melanoma
NCI-H23 lung = test system: NCI-H23 lung
SF-295 CNS = test system: SF-295 CNS
SK-MEL-28 melanoma = test system: SK-MEL-28 melanoma
A549 NSCLC = test system: A549 NSCLC
SF-268 CNS = test system: SF-268 CNS
SNB-19 CNS = test system: SNB-19 CNS
A498 renal = test system: A498 renal
HCT-116 colon = test system: HCT-116 colon
NCI-H226 lung = test system: NCI-H226 lung
LOX IMVI melanoma = test system: LOX IMVI melanoma
OVCAR-8 ovarian = test system: OVCAR-8 ovarian
NCI-H522 lung = test system: NCI-H522 lung
OVCAR-3 ovarian = test system: OVCAR-3 ovarian
HCT-15 colon = test system: HCT-15 colon
RPMI-8226 leukemia = test system: RPMI-8226 leukemia
HOP-92 NSCLC = test system: HOP-92 NSCLC
EKVX NSCLC = test system: EKVX NSCLC
KM12 colon = test system: KM12 colon
TK-10 renal = test system: TK-10 renal
CAKI-1 renal = test system: CAKI-1 renal
M14 melanoma = test system: M14 melanoma
HOP-18 NSCLC = test system: HOP-18 NSCLC
786-0 renal = test system: 786-0 renal
ACHN renal = test system: ACHN renal
RXF-631 renal = test system: RXF-631 renal
LXFL 529 NSCLC = test system: LXFL 529 NSCLC
SR leukemia = test system: SR leukemia

Measured: TGI

CCN(CC)CCCNc1ncc(C)c2[nH]c3ccncc3c12
20.3 µM: NCI-H226 lung
> 71.5 µM: CCRF-CEM leukemia
36.9 µM: SW-620 colon
22.7 µM: A549 NSCLC
34.6 µM: NCI-H23 lung
42 µM: KM12 colon
31 µM: KM20L2 colon
96.8 µM: OVCAR-8 ovarian
27.3 µM: IGROV1 ovarian
15.3 µM: P388 leukemia
18.4 µM: MOLT-4 leukemia
26.7 µM: OVCAR-5 ovarian
27.4 µM: MALME-3M melanoma | SK-MEL-28 melanoma
22.6 µM: COLO 205 colon
15.6 µM: NCI-H460 lung
19.9 µM: SN12K1 renal
> 79.9 µM: DLD-1 colon
27.7 µM: SNB-75 CNS
20.9 µM: SF-539 CNS
63.3 µM: EKVX NSCLC
30.5 µM: SN12C renal
25.8 µM: DMS 273 small cell lung
40.4 µM: A498 renal
13.8 µM: OVCAR-4 ovarian
79.5 µM: HOP-62 NSCLC
> 31.6 µM: HL-60(TB) leukemia
30.3 µM: HCT-116 colon
28.2 µM: UACC-62 melanoma
24 µM: XF 498 CNS
23.6 µM: SK-MEL-2 melanoma | HCC-2998 colon
22.8 µM: NCI-H522 lung
> 100 µM: NCI/ADR-RES ovarian | P388/ADR leukemia | UO-31 renal | SNB-78 CNS | K-562 leukemia | SNB-19 CNS | HCT-15 colon | RPMI-8226 leukemia
29.7 µM: SF-295 CNS
26.2 µM: HT29 colon
28 µM: M19-MEL melanoma
23 µM: RXF 393 renal
14.9 µM: LOX IMVI melanoma
56.3 µM: OVCAR-3 ovarian
15.9 µM: SK-OV-3 ovarian
18.5 µM: UACC-257 melanoma
17.4 µM: MCF7 breast
32.4 µM: SF-268 CNS
28.1 µM: SK-MEL-5 melanoma
26.3 µM: HOP-92 NSCLC
30.6 µM: U251 CNS
24.1 µM: DMS 114 small cell lung

CN(CCc1ccccn1)c1nc(=[N+](C)C)ss1
> 100 µM: M19-MEL melanoma | HL-60(TB) leukemia | UACC-257 melanoma | TK-10 renal | UO-31 renal | SK-MEL-5 melanoma | CAKI-1 renal | DMS 273 small cell lung | IGROV1 ovarian | M14 melanoma | HOP-18 NSCLC | SN12C renal | SNB-78 CNS | SF-539 CNS | U251 CNS | DLD-1 colon | XF 498 CNS | SW-620 colon | NCI-H460 lung | MALME-3M melanoma | COLO 205 colon | OVCAR-4 ovarian | SK-MEL-2 melanoma | 786-0 renal | HT29 colon | CCRF-CEM leukemia | K-562 leukemia | OVCAR-5 ovarian | SK-OV-3 ovarian | DMS 114 small cell lung | SNB-75 CNS | HOP-62 NSCLC | HCC-2998 colon | ACHN renal | RXF 393 renal | KM20L2 colon | MOLT-4 leukemia | UACC-62 melanoma | RXF-631 renal | NCI-H23 lung | SF-295 CNS | SK-MEL-28 melanoma | A549 NSCLC | SF-268 CNS | SNB-19 CNS | A498 renal | LOX IMVI melanoma | OVCAR-8 ovarian | NCI-H522 lung | LXFL 529 NSCLC | OVCAR-3 ovarian | HCT-15 colon | RPMI-8226 leukemia | HOP-92 NSCLC | EKVX NSCLC | KM12 colon

O=S(=O)(N/N=C/c1cccc(Cl)c1Cl)c1ccccc1
90.3 µM: DMS 114 small cell lung
82.5 µM: HOP-92 NSCLC
58.1 µM: MOLT-4 leukemia
> 100 µM: M19-MEL melanoma | HL-60(TB) leukemia | UACC-257 melanoma | TK-10 renal | UO-31 renal | SK-MEL-5 melanoma | CAKI-1 renal | DMS 273 small cell lung | IGROV1 ovarian | M14 melanoma | HOP-18 NSCLC | SN12C renal | SNB-78 CNS | SF-539 CNS | U251 CNS | DLD-1 colon | XF 498 CNS | SW-620 colon | NCI-H460 lung | MALME-3M melanoma | COLO 205 colon | OVCAR-4 ovarian | SK-MEL-2 melanoma | 786-0 renal | HT29 colon | CCRF-CEM leukemia | K-562 leukemia | OVCAR-5 ovarian | SK-OV-3 ovarian | SNB-75 CNS | HOP-62 NSCLC | HCC-2998 colon | ACHN renal | RXF 393 renal | KM20L2 colon | SR leukemia | UACC-62 melanoma | NCI-H23 lung | SF-295 CNS | SK-MEL-28 melanoma | A549 NSCLC | SF-268 CNS | A498 renal | HCT-116 colon | NCI-H226 lung | LOX IMVI melanoma | OVCAR-8 ovarian | LXFL 529 NSCLC | OVCAR-3 ovarian | HCT-15 colon | RPMI-8226 leukemia | EKVX NSCLC | KM12 colon
